Numbers after ± are expanded uncertainties.
Details: Transpiration method

SMILES | vapor or sublimation pressure (283.15 K, Crystal) [kPa] | vapor or sublimation pressure (293.15 K, Liquid) [kPa] | vapor or sublimation pressure (303.15 K, Liquid) [kPa] | vapor or sublimation pressure (313.15 K, Liquid) [kPa] | vapor or sublimation pressure (283.15 K, Liquid) [kPa] | vapor or sublimation pressure (293.15 K, Crystal) [kPa] | vapor or sublimation pressure (303.15 K, Crystal) [kPa] | vapor or sublimation pressure (313.15 K, Crystal) [kPa]
Cc1cccc([N+](=O)[O-])c1 [3-nitrotoluene] | 0.00339 ± 0.00049 | 0.00855 ± 0.0012 | 0.0195 ± 0.0028 | 0.0378 ± 0.0055 | – | – | – | –
CCCCCCCCCCCCCC [tetradecane] | – | 0.00121 ± 5e-05 | 0.00322 ± 0.00013 | 0.0081 ± 0.00031 | 0.000427 ± 1.7e-05 | – | – | –
Cc1ccccc1[N+](=O)[O-] [2-nitrotoluene] | – | 0.0127 ± 0.0018 | 0.0297 ± 0.0043 | 0.0611 ± 0.0088 | 0.00553 ± 0.0008 | – | – | –
Cc1ccc([N+](=O)[O-])cc1 [1-methyl-4-nitrobenzene] | 0.00125 ± 0.00018 | – | – | – | – | 0.00379 ± 0.00055 | 0.0102 ± 0.0015 | 0.0264 ± 0.0038

Source: the NIST ThermoML archive (doi:10.1021/je900293j)
